Key:
MEG-01 cells [1] = assay: Apoptosis assay by flow cytometry with AnnexinV-FITC and PI; type: cell-based, human; conditions: for early apoptotic cells (FL1H+, FL3H−) versus control untreated (DMSO): 72 hours; for early apoptotic cells (FL1H+, FL3H−) versus control untreated (DMSO) / total apoptotic cells (late plus early) versus control untreated (DMSO): p<0.01; for cytotoxicity: MEG-01 cells
Experimental: For induction of typical apoptosis, cells were cultured with 1 μM Staurosporine (Sigma-Aldrich, cat. # S6942) for 6 hours as recommended in the protocol from the provider. Next the Staurosporine treated cells were stained as follows: (1) with PI, (2) with AnnexinV-FITC and (3) both PI and AnnexinV-FITC in order to have the brightest controls for compensation and proper collection of the flow cytometry data. Cell necrosis was induced by heat shock (65° C. for 30 minutes). Controls for necrosis were stained in the same way as for the Staurosporine treated cells.
In order to establish the effect of the treatments on the apoptosis levels, the non-treated cells (as well as the mock control DMSO) were considered as a control, stained with PI and AnnexinV-FITC and the unstained cells, grown for the same length of treatment. The unstained control signal was subtracted by gating from the stained control and the rest of stained samples, to get only the positive stained cells signal. The stained control, both PI and AnnexinV-FITC labeled, was then used as the reference in establishing the level of apoptosis induced by the treatments.
Samples contained three cell populations of different size and shape and data was collected on logarithmic modes. AnnexinV-FITC corresponds to FL1H channel, and PI to FL3H or FL2H channels. When needed, compensation was done to remove any spillover between the channels. In addition, proper gating was done to characterize each cell population. The population of cells high on FSC and SSC, identified as large, non-granulated particles corresponds to MEG-01 cells. This population is involved in the proplatelets formation and terminal phase of megakaryocytopoiesis and in thrombocytopoiesis. MEG-01 gate is the one of interest in estimating the apoptosis level induced by the treatments.
The Apoptosis AnnexinV-FITC and PI kit from BD Biosciences, CA, USA was used. 105-106 cells were stained with 50 μg/ml propidium iodide (PI) and with 0.5 μg/ml FITC-labeled Annexin V using the staining protocol provided by the supplier. Briefly, cells were counted using a Neubauer hemacytometer, then washed and resuspended in the appropriate amount of AnnexinV-binding buffer 1× (provided in the kit), in order to have the most […] in 100 μl. Then it was used further, as the total reaction volume 100 μl (containing 10^6 cells) to which PI and AnnexinV-FITC was added. Incubation was done for 15 minutes in dark at room temperature. Samples were then analyzed immediately by flow cytometry.
With reference to FIGS. 5-9, apoptosis flow cytometry (AnnexinV-FITC corresponding to FL1H and PI corresponding to FL3H) is depicted. Analyzed and graphed values correspond to frequencies of the parent obtained with FlowJo software version 6.2, after quadrant gating. […] In FIG. 5, apoptotic cells, percentages (FL1H+, FL3H−), after 24 hours of treatment with CK2α inhibitors are depicted. Left bar represents Control untreated (DMSO), middle bar represents DMAT 20 μM treatment and right bar represents TBB 50 μM treatment. The MEG-01 cells were treated for a period of 24 hours. […] Left column represents the Control untreated (DMSO), middle bar represents DMAT 20 μM treatment and right bar represents TBB 50 μM treatment. The MEG-01 cells were treated for a period of 72 hours. […] Left bar represents the Control untreated (DMSO), middle bar represents DMAT 20 μM treatment and right bar represents TBB 50 μM treatment. The MEG-01 cells were treated for a period of 96 hours. […] FIG. 8 illustrates control untreated (DMSO) stained for both Annexin V-FITC and PI, after 24 hours.

MEG-01 cells [2] = assay: Thrombocytopoiesis / proplatelet formation by light, DAPI fluorescence and SEM microscopy; type: cell-based, human; conditions: for thrombocytopoiesis: MEG-01 cells
Experimental: For observing the cells with light microscopy and to be able to provide a matrix for them to adhere, Fibronectin (FN), was used at 5 μg/cm^2 and incubated at 37° C. for 1 h, as a coat for the culture dish (6 well plates usually), as recommended by the provider (BD Biosciences, Bedford, Mass., USA) (Jiang et al., 2002).
Cell pictures were routinely taken in the laboratory of using an Olympus CK40 microscope, and the NIH Image software. High quality pictures and live imaging were taken at Cleveland Clinic Foundation Imaging Core.
DAPI staining of cultured MEG-01 cells was done with fresh cells, for live imaging.
Different concentrations of inhibitors were used, and both floating as well as fibronectin bound cells were examined. Proplatelets producing cells were observed as early as from the second day (after 24 hours), but in the third and forth days proplatelets formation was enhanced. […] When such a cell was identified, efforts were taken to focus on it and pictures were taken every 10 seconds for one day.
Cell preparation and pictures were done at the Microscopy Core Facility Cleveland Clinic. Cells were grown for 4 days with DMAT 10 μM and then collected by differential centrifugation. Cells were fixed in glutaraldehyde buffer and then further processed at the Core. The clot was prepared with platelets collected from MEG-01 cultures treated with DMAT 10 μM. Human thrombin 0.5 U/ml for 15 minutes was used to activate them. Then the clot was fixed in suspension.
Referring to FIGS. 10-15, DAPI staining of live MEG-01 cells is illustrated. Apoptotic morphology of MEG-01 cells. In FIG. 10, proplatelets formation in suspension, result of DMAT treatment (10 μM) is shown. FIG. 11 depicts proplatelets formation on Fibronectin, result of DMAT treatment (10 μM). […] This image represents the DAPI staining of cells from FIG. 11. […] FIG. 14 also illustrates phase contrast micrograph of live MEG-01 cells untreated in the 3rd to the 4th day (DMSO), 20×. FIG. 15 illustrates phase contrast micrograph of live MEG-01 cells treated with DMAT 10 μM in the 3rd to the 4th day, 20×. To summarize, FIGS. 10-15 show chromatin condensation, blebbing, cytoplasmic and nuclear fragmentation, as well as polyploidy (increase in the size of the nucleus) of MEG-01 cells following DMAT treatment.

MEG-01 cells [3] = assay: Viability (proliferation) assay, Trypan blue exclusion; conditions: for proliferation rate / cell number of MEG-01 cells: 4 days of treatment
Excerpt: In order to check the effect of CK2 inhibitors, the treatments length went up to 4, 5 days without splitting.
Cells were counted using a Neubauer hemacytometer. Trypan blue dye was used according to the manufacturer (Sigma-Aldrich, cat. # T8154).
Cell number (as cells/ml) was estimated using the formula [(total count/0.1)/total surface area counted]*(dilution factor), where 0.1 is the chamber depth, considering the appropriate area counted, half dilution for Trypan blue was considered in calculations. Countings were done as quadruplicates every 24 hours.
Quadruplicates values were used for each sample. Experiments were repeated at least 4 times, in order to see if the trend is correct and reproducible.

[4] = 50 μM, fourth and fifth days (TBB p<0.01, DMAT p<0.005)

Compound | apoptosis (MEG-01 cells [1]; 10 μM, 24 hours) | apoptosis versus non-treated control (MEG-01 cells [1]; 20 μM, 24 hours) | early apoptotic cells (FL1H+, FL3H−) versus control untreated (DMSO) (MEG-01 cells [1]; 20 μM) | total apoptotic cells (late plus early) versus control untreated (DMSO) (MEG-01 cells [1]; 20 μM, 96 hours) | apoptosis compared with TBB (MEG-01 cells [1]; DMAT 20 μM versus TBB 50 μM, 96 hours) | cytotoxicity (MEG-01 cells [1]) | cell surface phenotype by SEM (MEG-01 cells [2]; 10 μM, 3 to 4 days) | maturation and proplatelet formation (MEG-01 cells [2]; 10 μM, as early as from the second day, in suspension and on fibronectin) | thrombocytopoiesis (MEG-01 cells [2]) | proliferation (viability) versus Control untreated (DMSO) (MEG-01 cells [3]; 25 μM, fourth and fifth days, p<0.01) | proliferation rate / cell number of MEG-01 cells (MEG-01 cells [3]; 50 μM) | proliferation (viability) versus Control untreated (DMSO) (MEG-01 cells [3]; [4]) | apoptosis versus non-treated control (MEG-01 cells [1]; 50 μM, 24 hours, p<0.05) | early apoptotic cells (FL1H+, FL3H−) versus control untreated (DMSO) (MEG-01 cells [1]; 50 μM) | total apoptotic cells (late plus early) versus control untreated (DMSO) (MEG-01 cells [1]; 50 μM, 96 hours) | proliferation rate / cell number of MEG-01 cells (MEG-01 cells [3]; 100 μM) | proliferation (viability) versus Control untreated (DMSO) (MEG-01 cells [3]; 100 μM, fourth and fifth days, p<0.005) | concentration at which the inhibitor had effect (MEG-01 cells [3]; proliferation arrest and induced apoptosis, TBB concentration required for the same effect as DMAT)
CN(C)c1nc2c(Br)c(Br)c(Br)c(Br)c2[nH]1 [DMAT, 2-dimethylamino-4,5,6,7-tetrabromo-1H-benzimidazole] | induced apoptosis | extremely significant apoptosis | significant apoptosis after 72 hours | significant apoptosis after 96 hours | induces more apoptosis at a lower concentration than the less specific inhibitor (TBB) | without being cytotoxic | Pseudopodia and proplatelets formation, as well as blebbing can be observed | induced MEG-01 cells to mature and form proplatelets extensions | induced thrombocytopoiesis | very significant statistical differences | maintained a steady number of cells for the 4 days of treatment and induced extremely significant reduction in the proliferation rate | very significant statistical differences |  |  |  |  |  | 
Brc1c(Br)c(Br)c2[nH]nnc2c1Br [TBB, 4,5,6,7-tetrabromobenzotriazole] |  |  |  |  |  | without being cytotoxic |  |  | induced thrombocytopoiesis |  |  | very significant statistical differences | significant apoptosis | significant apoptosis after 72 hours | significant apoptosis after 96 hours | maintained a steady number of cells for the 4 days of treatment and induced extremely significant reduction in the proliferation rate | very significant statistical differences | 50 µM

Reference: patent publication US20100048657A1, “CONTROL OF MALIGNANT CELLS PROLIFERATION THROUGH THE INHIBITION OF CASEIN KINASE 2” (CLEVELAND STATE UNIVERSITY, priority 2006, published 2010)
